From patent publication US20030232994A1, “Bicyclic thiophene derivatives and combinatorial libraries thereof” (priority 2001, published 2003)

Tested on: Streptococcus pyogenes (ATCC# 97-03 14289)
Test: Anti-microbial screen (growth inhibition, OD 570 nm)
Assay type: cell-based
Details: growth in Todd Hewitt Broth, plates read at 570 nm at 0 time and 4 hours, color corrected
Procedure: Streptococcus pyogenes (ATCC# 97-03 14289) was grown in Todd Hewitt Broth (THB) (Difco Laboratories #0492-17-6) overnight until reaching an optical density of (OD=0.636 @ 570 nm) by reading 0.1 ml in a 96 well microtiter plate in a Molecular Devices Thermomax. This preparation was kept frozen as stocks in 30% v/v glycerol in 1.5 ml aliquots at −70^mC. until use. Prior to experiments, […] aliquots were thawed and diluted into 50 ml 2×THB. 60 ul of this dilution was added to 92 wells of microtiter plate. To three wells THB (200 ul) was added to serve as a blank and a sterility control. Test compounds in DMSO and appropriate concentrations of DMSO were added to Growth/Solvent Controls at 0 time. Plates were read at 0 time at 570 nm in the Molecular Devices plate reader to obtain compounds correction factors for insoluble or colored compounds. Plates were read again at 4 hours.
Percent inhibition is calculated with the following formulae: [drawing 4]
Color correct=O.D. 0 hr−Blank 0 hr)−(Solvent Control 0 hr−Blank 0 hr)
% Inhibition=100−O.D. test compound 4 hr−Blank 4 hr−color correct O.D. growth/solvent control 4 hr−Blank 4 hr

| SMILES | % Inhibition [%] |
| --- | --- |
| O=C(Nc1sc2c(c1C(=O)O)CCN(C(=O)CCc1ccc(F)c(F)c1)C2)c1ccc(Cl)cc1 | 82.59 |
| Cc1ccccc1C(=O)N1CCc2c(sc(NC(=O)[C@]34C[C@H]5C[C@@H](C[C@H](C5)C3)C4)c2C(=O)O)C1 | 61.84 |
| O=C(Nc1sc2c(c1C(=O)O)CCN(C(=O)c1ccco1)C2)c1ccccc1 | 96.39 |
| O=C(Nc1sc2c(c1C(=O)O)CCN(C(=O)/C=C/c1ccc(Cl)cc1)C2)c1ccccc1Cl | 68.58 |
| O=C(Nc1sc2c(c1C(=O)O)CCN(C(=O)/C=C/c1ccc(Cl)cc1)C2)c1ccccc1 | 93.13 |
| CCC(C(=O)Nc1sc2c(c1C(=O)O)CCN(C(=O)Cc1cc(C)ccc1C)C2)c1ccccc1 (stereo not drawn) | 80.75 |
| COc1cccc(C(=O)N2CCc3c(sc(NC(=O)C4CCCCC4)c3C(=O)O)C2)c1OC | 61.06 |
| CC(C)(C)c1ccc(C(=O)Nc2sc3c(c2C(=O)O)CCN(C(=O)CC2CCCC2)C3)cc1 | 79.23 |
| Cc1c(F)cccc1C(=O)N1CCc2c(sc(NC(=O)CC(C)CC(C)(C)C)c2C(=O)O)C1 (stereo not drawn) | 77.56 |
| CCCc1ccc(C(=O)Nc2sc3c(c2C(=O)O)CCN(C(=O)CC2CCCC2)C3)cc1 | 61.53 |
| Cc1ccc(C(=O)N2CCc3c(sc(NC(=O)c4ccccc4Cl)c3C(=O)O)C2)cn1 | 69.18 |
| CCCSc1ncccc1C(=O)N1CCc2c(sc(NC(=O)c3ccc(C(C)(C)C)cc3)c2C(=O)O)C1 | 83.49 |
| COc1cccc(C(=O)N2CCc3c(sc(NC(=O)c4ccccc4Cl)c3C(=O)O)C2)c1OC | 60.53 |
| CC(C)C(=O)N1CCc2c(sc(NC(=O)c3ccc(C(C)(C)C)cc3)c2C(=O)O)C1 | 77.26 |
| O=C(Nc1sc2c(c1C(=O)O)CCN(C(=O)c1ccc(Cl)cc1)C2)c1ccccc1 | 87.07 |
| CCC(C(=O)Nc1sc2c(c1C(=O)O)CCN(C(=O)c1cc3ccccc3s1)C2)c1ccccc1 (stereo not drawn) | 66.79 |
| O=C(Nc1sc2c(c1C(=O)O)CCN(C(=O)C1CCC1)C2)c1ccccc1 | 89.4 |
| CCCc1ccc(C(=O)Nc2sc3c(c2C(=O)O)CCN(C(=O)c2cccnc2OCC)C3)cc1 | 92.34 |
| O=C(Nc1sc2c(c1C(=O)O)CCN(C(=O)CC1CCCC1)C2)c1ccco1 | 65.78 |
| CCCc1ccc(C(=O)Nc2sc3c(c2C(=O)O)CCN(C(=O)c2cccc(OC)c2OC)C3)cc1 | 76.44 |
| CCC(C(=O)Nc1sc2c(c1C(=O)O)CCN(C(=O)c1ccc(Cl)cc1)C2)c1ccccc1 (stereo not drawn) | 72.87 |
| COc1cccc(C(=O)Nc2sc3c(c2C(=O)O)CCN(C(=O)c2cccc(F)c2C)C3)c1 | 73.59 |
| CCCc1ccc(C(=O)Nc2sc3c(c2C(=O)O)CCN(C(=O)C2CCC2)C3)cc1 | 95.65 |

| SMILES | % Inhibition [%] |
| --- | --- |
| CCCSc1ncccc1C(=O)N1CCc2c(sc(NC(=O)c3ccc(Cl)cc3)c2C(=O)O)C1 | 66.79 |
| COc1cccc(C(=O)Nc2sc3c(c2C(=O)O)CCN(C(=O)c2ccc(F)c(F)c2)C3)c1 | 75.77 |
| O=C(Nc1sc2c(c1C(=O)O)CCN(C(=O)c1ccco1)C2)c1ccccc1Cl | 78.12 |
| O=C(Nc1sc2c(c1C(=O)O)CCN(C(=O)c1ccc(C(F)(F)F)cc1)C2)c1ccc2ccccc2c1 | 63.29 |
| CCc1ccc(C(=O)Nc2sc3c(c2C(=O)O)CCN(C(=O)c2ccc(Cl)cc2OC)C3)cc1 | 62.84 |
| CCCSc1ncccc1C(=O)N1CCc2c(sc(NC(=O)c3ccc(CCC)cc3)c2C(=O)O)C1 | 79.09 |
| CCc1ccc(C(=O)Nc2sc3c(c2C(=O)O)CCN(C(=O)c2ccc(C)cc2C)C3)cc1 | 85.78 |
| CCC(=O)N1CCc2c(sc(NC(=O)C(CC)c3ccccc3)c2C(=O)O)C1 (stereo not drawn) | 60.7 |
| CSc1ccccc1C(=O)N1CCc2c(sc(NC(=O)c3ccc(C(C)(C)C)cc3)c2C(=O)O)C1 | 64.48 |
| Cc1ccc(C(=O)N2CCc3c(sc(NC(=O)c4ccc(C(C)(C)C)cc4)c3C(=O)O)C2)cn1 | 74.64 |
| COc1ccc(OC)c(C(=O)N2CCc3c(sc(NC(=O)CC(C)CC(C)(C)C)c3C(=O)O)C2)c1 (stereo not drawn) | 68.17 |
| Cc1ccc(C(=O)N2CCc3c(sc(NC(=O)c4ccccc4)c3C(=O)O)C2)cn1 | 82.41 |
| Cn1cc(C(=O)N2CCc3c(sc(NC(=O)CCC4CCCC4)c3C(=O)O)C2)c2ccccc21 | 65.02 |
| O=C(Nc1sc2c(c1C(=O)O)CCN(C(=O)C1CCCCC1)C2)c1ccc(Cl)cc1 | 72.46 |
| Cc1noc(C)c1C(=O)N1CCc2c(sc(NC(=O)c3ccccc3)c2C(=O)O)C1 | 96.39 |
| CC(=O)Nc1ccc(C(=O)N2CCc3c(sc(NC(=O)c4ccccc4)c3C(=O)O)C2)cc1 | 90.8 |
| COc1cccc(C(=O)Nc2sc3c(c2C(=O)O)CCN(C(=O)c2cc4ccccc4s2)C3)c1 | 63.77 |
| Cc1ccccc1C(=O)N1CCc2c(sc(NC(=O)c3ccccc3)c2C(=O)O)C1 | 80.08 |
| COc1ccc(OC)c(C(=O)N2CCc3c(sc(NC(=O)CCC4CCCC4)c3C(=O)O)C2)c1 | 86.05 |
| CC(C)C(=O)N1CCc2c(sc(NC(=O)c3ccccc3)c2C(=O)O)C1 | 90.8 |
| CSc1ccccc1C(=O)N1CCc2c(sc(NC(=O)c3ccccc3Cl)c2C(=O)O)C1 | 67.09 |
| O=C(CCC1CCCC1)Nc1sc2c(c1C(=O)O)CCN(C(=O)C1CCCCC1)C2 | 65.37 |
